Measurements reported in ChEMBL document CHEMBL4033685, “C21-steroidal pregnane sapogenins and their derivatives as anti-inflammatory agents” (Bioorg Med Chem, 2017).
pEC50: −log10 of the molar value. Calls of active or inactive are those of the source. The calls are words filed in the database; no cut-off is given here.

Tests used:
THP-1 [1] = assay: Effect on RelB protein expression in human THP1 cells at 10 uM after 3 hrs by Western blot analysis; assay type: functional, cell-based
Toll-like receptor 4 [2] = molecular target: T1, Toll-like receptor 4 (Homo sapiens, UniProt O00206); assay: Antagonist activity at TLR4 (unknown origin) expressed in human AD293 cells assessed as inhibition of LPS/ATP-stimulated TLR4/NF-kB signaling pathway after 16 hrs by luciferase reporter gene assay; assay type: cell-based
T1 sequence (O00206 whole entry): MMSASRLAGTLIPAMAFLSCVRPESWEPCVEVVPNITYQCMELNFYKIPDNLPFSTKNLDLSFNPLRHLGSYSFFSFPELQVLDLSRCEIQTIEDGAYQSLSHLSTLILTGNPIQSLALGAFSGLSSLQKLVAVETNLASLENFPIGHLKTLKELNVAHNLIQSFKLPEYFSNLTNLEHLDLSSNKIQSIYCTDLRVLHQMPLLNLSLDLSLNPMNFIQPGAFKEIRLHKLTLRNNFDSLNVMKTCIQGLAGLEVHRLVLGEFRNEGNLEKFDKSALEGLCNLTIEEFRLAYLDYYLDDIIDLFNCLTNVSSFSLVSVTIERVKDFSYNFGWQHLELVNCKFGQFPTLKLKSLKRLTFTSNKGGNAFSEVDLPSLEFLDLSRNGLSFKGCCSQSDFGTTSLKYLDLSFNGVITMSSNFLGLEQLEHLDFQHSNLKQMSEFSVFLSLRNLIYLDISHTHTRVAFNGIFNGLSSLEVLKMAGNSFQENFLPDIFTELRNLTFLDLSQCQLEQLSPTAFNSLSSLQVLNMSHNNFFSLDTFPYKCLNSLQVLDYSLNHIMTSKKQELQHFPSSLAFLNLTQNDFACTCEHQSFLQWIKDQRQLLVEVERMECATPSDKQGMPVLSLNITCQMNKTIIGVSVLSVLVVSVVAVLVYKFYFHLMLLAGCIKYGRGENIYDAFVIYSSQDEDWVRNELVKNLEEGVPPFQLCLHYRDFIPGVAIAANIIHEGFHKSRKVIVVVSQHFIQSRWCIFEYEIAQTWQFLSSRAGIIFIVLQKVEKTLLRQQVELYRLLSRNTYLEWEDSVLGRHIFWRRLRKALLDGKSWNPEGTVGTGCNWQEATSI

Homo sapiens = species on record: Homo sapiens; assay: Inhibition of TNFalpha-stimulated NF-kB signaling pathway (unknown origin) expressed in human AD293 cells after 4 hrs by luciferase reporter gene assay; assay type: cell-based
AD293 [3] = assay: Cytotoxicity against human AD293 cells assessed as reduction in cell viability after 24 hrs by methylene blue dye based spectrophotometric method; settings: ad293, 24 h
Toll-like receptor 4 [4] = molecular target: T1, Toll-like receptor 4; assay: Antagonist activity at TLR4 in human THP1 cells assessed as inhibition of LPS-stimulated IL-6 mRNA level at 10 uM after 16 hrs by RT-PCR method; assay type: cell-based
Toll-like receptor 4 [5] = molecular target: T1, Toll-like receptor 4; assay: Antagonist activity at TLR4 in human THP1 cells assessed as inhibition of LPS-stimulated RANTES mRNA level at 10 uM after 16 hrs by RT-PCR method; assay type: cell-based
[6] = molecular target: Toll-like receptor 3 (Homo sapiens) (UniProt O15455); assay: Antagonist activity at TLR3 in human THP1 cells assessed as inhibition of poly IC-stimulated IL-6 mRNA level at 10 uM after 16 hrs by RT-PCR method; assay type: cell-based
Chain of Toll-like receptor 3 (Homo sapiens) (O15455 whole entry): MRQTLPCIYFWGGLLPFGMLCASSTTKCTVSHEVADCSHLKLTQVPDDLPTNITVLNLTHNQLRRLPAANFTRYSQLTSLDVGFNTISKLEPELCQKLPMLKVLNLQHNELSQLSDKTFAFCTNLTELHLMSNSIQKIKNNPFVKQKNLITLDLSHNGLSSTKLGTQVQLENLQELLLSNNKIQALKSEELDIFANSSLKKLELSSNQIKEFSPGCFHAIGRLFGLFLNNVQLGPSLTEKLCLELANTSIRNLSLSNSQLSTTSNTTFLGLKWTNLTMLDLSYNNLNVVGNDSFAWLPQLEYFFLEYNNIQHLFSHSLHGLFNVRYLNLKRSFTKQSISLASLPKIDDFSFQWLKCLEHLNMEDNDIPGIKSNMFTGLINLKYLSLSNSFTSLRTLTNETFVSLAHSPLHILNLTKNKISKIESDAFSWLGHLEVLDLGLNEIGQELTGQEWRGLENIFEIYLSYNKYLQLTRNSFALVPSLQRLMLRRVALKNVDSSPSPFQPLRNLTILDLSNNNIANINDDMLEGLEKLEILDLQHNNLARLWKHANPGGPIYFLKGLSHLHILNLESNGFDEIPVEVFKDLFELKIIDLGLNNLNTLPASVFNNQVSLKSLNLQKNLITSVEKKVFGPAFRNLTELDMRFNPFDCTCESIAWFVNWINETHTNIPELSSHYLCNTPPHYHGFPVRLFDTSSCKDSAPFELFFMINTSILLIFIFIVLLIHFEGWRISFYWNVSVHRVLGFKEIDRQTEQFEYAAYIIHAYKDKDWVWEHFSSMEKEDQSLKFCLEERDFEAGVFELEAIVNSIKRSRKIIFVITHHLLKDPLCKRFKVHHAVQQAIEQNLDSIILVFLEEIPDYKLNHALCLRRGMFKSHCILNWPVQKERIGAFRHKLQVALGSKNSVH

[7] = molecular target: Toll-like receptor 3 (Homo sapiens) (UniProt O15455); assay: Antagonist activity at TLR3 in human THP1 cells assessed as inhibition of poly IC-stimulated RANTES mRNA level at 10 uM after 16 hrs by RT-PCR method; assay type: cell-based
[8] = molecular target: Toll-like receptor 2 (Homo sapiens) (UniProt O60603); assay: Antagonist activity at TLR2 in human THP1 cells assessed as inhibition of PGN-stimulated IL-6 mRNA level at 10 uM after 16 hrs by RT-PCR method; assay type: cell-based
Chain of Toll-like receptor 2 (Homo sapiens) (O60603 whole entry): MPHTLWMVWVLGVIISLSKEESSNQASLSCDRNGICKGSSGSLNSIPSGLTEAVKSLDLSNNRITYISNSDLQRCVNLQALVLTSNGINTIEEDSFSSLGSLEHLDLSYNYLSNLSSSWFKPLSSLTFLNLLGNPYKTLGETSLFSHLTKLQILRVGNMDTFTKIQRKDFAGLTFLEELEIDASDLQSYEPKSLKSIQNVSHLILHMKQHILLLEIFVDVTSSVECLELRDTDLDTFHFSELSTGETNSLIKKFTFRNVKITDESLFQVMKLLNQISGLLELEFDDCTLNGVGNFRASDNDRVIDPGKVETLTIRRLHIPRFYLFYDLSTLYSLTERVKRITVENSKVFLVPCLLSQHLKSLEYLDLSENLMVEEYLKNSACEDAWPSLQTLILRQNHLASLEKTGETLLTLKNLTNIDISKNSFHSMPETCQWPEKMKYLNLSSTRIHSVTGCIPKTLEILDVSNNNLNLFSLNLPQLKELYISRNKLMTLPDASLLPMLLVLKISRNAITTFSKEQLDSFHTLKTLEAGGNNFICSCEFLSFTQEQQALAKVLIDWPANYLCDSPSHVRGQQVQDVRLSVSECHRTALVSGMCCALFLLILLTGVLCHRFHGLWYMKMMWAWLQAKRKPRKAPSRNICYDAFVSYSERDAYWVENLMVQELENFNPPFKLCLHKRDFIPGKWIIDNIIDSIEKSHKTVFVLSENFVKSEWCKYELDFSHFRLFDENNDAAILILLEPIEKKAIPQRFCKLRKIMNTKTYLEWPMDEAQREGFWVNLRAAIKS

[9] = molecular target: Toll-like receptor 2 (Homo sapiens) (UniProt O60603); assay: Antagonist activity at TLR2 in human THP1 cells assessed as inhibition of PGN-stimulated RANTES mRNA level at 10 uM after 16 hrs by RT-PCR method; assay type: cell-based
Toll-like receptor 4 [10] = molecular target: T1, Toll-like receptor 4; assay: Antagonist activity at TLR4 in human THP1 cells assessed as inhibition of LPS-stimulated IL-1beta level at 10 uM by bead based immunoassay; assay type: cell-based
Toll-like receptor 4 [11] = molecular target: T1, Toll-like receptor 4; assay: Antagonist activity at TLR4 in human THP1 cells assessed as inhibition of LPS-stimulated TNFalpha level at 10 uM by bead based immunoassay; assay type: cell-based
Toll-like receptor 4 [12] = molecular target: T1, Toll-like receptor 4; assay: Antagonist activity at TLR4 in human THP1 cells assessed as inhibition of LPS-stimulated IL-6 level at 10 uM by bead based immunoassay; assay type: cell-based
[13] = molecular target: Toll-like receptor 3 (Homo sapiens) (UniProt O15455); assay: Antagonist activity at TLR3 in human THP1 cells assessed as inhibition of poly IC-stimulated IL-1beta level at 10 uM by bead based immunoassay; assay type: cell-based
[14] = molecular target: Toll-like receptor 3 (Homo sapiens) (UniProt O15455); assay: Antagonist activity at TLR3 in human THP1 cells assessed as inhibition of poly IC-stimulated TNFalpha level at 10 uM by bead based immunoassay; assay type: cell-based
[15] = molecular target: Toll-like receptor 2 (Homo sapiens) (UniProt O60603); assay: Antagonist activity at TLR2 in human THP1 cells assessed as inhibition of PGN-stimulated IL-1beta level at 10 uM by bead based immunoassay; assay type: cell-based
[16] = molecular target: Toll-like receptor 2 (Homo sapiens) (UniProt O60603); assay: Antagonist activity at TLR2 in human THP1 cells assessed as inhibition of PGN-stimulated TNFalpha level at 10 uM by bead based immunoassay; assay type: cell-based
[17] = molecular target: Transcription factor p65 (Homo sapiens) (UniProt Q04206); assay: Inhibition of TNFalpha-stimulated NF-kB p65 activation (unknown origin) expressed in human AD293 cells assessed as nuclear translocation of p65 at 10 uM after 3 hrs by confocal microscopic method; assay type: cell-based
Chain of Transcription factor p65 (Homo sapiens) (Q04206 whole entry): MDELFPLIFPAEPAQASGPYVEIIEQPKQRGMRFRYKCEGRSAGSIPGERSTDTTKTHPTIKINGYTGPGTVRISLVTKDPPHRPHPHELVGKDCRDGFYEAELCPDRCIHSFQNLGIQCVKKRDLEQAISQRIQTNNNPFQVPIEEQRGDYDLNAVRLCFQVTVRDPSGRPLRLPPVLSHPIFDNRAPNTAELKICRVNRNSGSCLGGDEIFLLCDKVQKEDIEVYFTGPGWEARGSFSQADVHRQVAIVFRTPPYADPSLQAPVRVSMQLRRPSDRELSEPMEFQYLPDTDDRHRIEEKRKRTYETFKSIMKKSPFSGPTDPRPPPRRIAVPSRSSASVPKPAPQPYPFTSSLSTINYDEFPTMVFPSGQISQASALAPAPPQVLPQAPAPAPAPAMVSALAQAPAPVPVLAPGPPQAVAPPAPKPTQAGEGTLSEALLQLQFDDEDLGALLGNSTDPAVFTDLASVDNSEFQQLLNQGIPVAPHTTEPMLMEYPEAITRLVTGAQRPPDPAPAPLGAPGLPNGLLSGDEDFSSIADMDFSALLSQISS

[18] = molecular target: Transcription factor p65 (Homo sapiens) (UniProt Q04206); assay: Inhibition of TNFalpha-stimulated NF-kB p65 phosphorylation (unknown origin) expressed in human AD293 cells at 10 uM after 3 hrs by Western blot analysis; assay type: cell-based
[19] = molecular target: T2, NF-kappa-B inhibitor alpha (Homo sapiens) (UniProt P25963); assay: Inhibition of TNFalpha-stimulated IkBalpha phosphorylation in human AD293 cells at 10 uM after 3 hrs by Western blot analysis; assay type: cell-based
T2 sequence (whole entry): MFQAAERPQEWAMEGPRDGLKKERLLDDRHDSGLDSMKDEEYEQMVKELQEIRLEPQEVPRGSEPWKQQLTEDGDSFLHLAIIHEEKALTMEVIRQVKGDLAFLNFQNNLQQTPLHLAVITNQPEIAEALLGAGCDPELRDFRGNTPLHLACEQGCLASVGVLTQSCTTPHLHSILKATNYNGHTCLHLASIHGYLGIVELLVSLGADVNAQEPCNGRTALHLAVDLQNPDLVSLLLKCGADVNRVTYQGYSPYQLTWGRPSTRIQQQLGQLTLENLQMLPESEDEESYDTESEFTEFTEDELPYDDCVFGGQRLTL

AD293 [20] = assay: Effect on IkBalpha protein expression in TNFalpha-stimulated human AD293 cells at 10 uM after 3 hrs by Western blot analysis; assay type: functional, cell-based
[21] = molecular target: Transcription factor p65 (Homo sapiens) (UniProt Q04206); assay: Upregulation of NF-kB p65 phosphorylation (unknown origin) expressed in human AD293 cells at 10 uM after 3 hrs by Western blot analysis; assay type: cell-based
Toll-like receptor 4 [22] = molecular target: T1, Toll-like receptor 4; assay: Antagonist activity at TLR4 in human THP1 cells assessed as increase in LPS-stimulated NFkappaB p65 phosphorylation at 10 uM after 3 hrs by Western blot analysis; assay type: cell-based
THP-1 [23] = assay: Downregulation of IkBalpha protein expression in LPS-stimulated human THP1 cells at 10 uM after 3 hrs by Western blot analysis; assay type: functional, cell-based
THP-1 [24] = assay: Downregulation of IkBalpha protein expression in human THP1 cells at 10 uM after 3 hrs by Western blot analysis; assay type: functional, cell-based
Toll-like receptor 4 [25] = molecular target: T1, Toll-like receptor 4; assay: Antagonist activity at TLR4 in human THP1 cells assessed as inhibition of LPS-stimulated NF-kB canonical signaling pathway by measuring decrease in IkBalpha phosphorylation at 10 uM after 3 hrs by Western blot analysis; assay type: cell-based
THP-1 [26] = assay: Upregulation of IKKalpha protein expression in LPS-stimulated human THP1 cells at 10 uM after 3 hrs by Western blot analysis; assay type: functional, cell-based
THP-1 [27] = assay: Upregulation of IKKalpha protein expression in human THP1 cells at 10 uM after 3 hrs by Western blot analysis; assay type: functional, cell-based
AD293 [28] = assay: Upregulation of IKKalpha protein expression in TNFalpha-stimulated human AD293 cells at 10 uM after 3 hrs by Western blot analysis; assay type: functional, cell-based
AD293 [29] = assay: Upregulation of IKKalpha protein expression in human AD293 cells at 10 uM after 3 hrs by Western blot analysis; assay type: functional, cell-based
Toll-like receptor 4 [30] = molecular target: T1, Toll-like receptor 4; assay: Antagonist activity at TLR4 in human THP1 cells assessed as inhibition of LPS-stimulated NF-kB non-canonical signaling pathway by measuring decrease in RelB expression at 10 uM after 3 hrs by Western blot analysis; assay type: cell-based
Toll-like receptor 4 [31] = molecular target: T1, Toll-like receptor 4; assay: Antagonist activity at TLR4 in human THP1 cells harboring human TRAF6 assessed as inhibition of LPS-stimulated IL-1beta level at 10 uM by bead based immunoassay; assay type: cell-based
Toll-like receptor 4 [32] = molecular target: T1, Toll-like receptor 4; assay: Antagonist activity at TLR4 in human THP1 cells harboring human TRAF6 assessed as inhibition of LPS-stimulated TNFalpha level at 10 uM by bead based immunoassay; assay type: cell-based
Toll-like receptor 4 [33] = molecular target: T1, Toll-like receptor 4; assay: Antagonist activity at TLR4 in human THP1 cells harboring human TRAF6 assessed as inhibition of LPS-stimulated IL-6 level at 10 uM by bead based immunoassay; assay type: cell-based

With `C[C@@H](OC(=O)c1ccccc1O)[C@]1(O)CC[C@@]2(O)[C@]1(C)[C@H](OC(=O)/C=C/c1ccccc1)C[C@@H]1[C@@]3(C)CC[C@H](O)CC3=CC[C@]12O` the Activity (THP-1 [1]) was “Active”, the pEC50 (Toll-like receptor 4 [2]) was 5.31 and the EC10 (Homo sapiens) was greater than 10 µM. For the same compound, the CC10 (AD293 [3]) was greater than 10 µM, the inhibition (Toll-like receptor 4 [4]) was “Active” and the inhibition (Toll-like receptor 4 [5]) was “Active”. The inhibition [6] was “Active”, the inhibition [7] was “Active” and the inhibition [8] was “Active”. For the same compound, the inhibition [9] was “Active”, the inhibition (Toll-like receptor 4 [10]) was “Active” and the inhibition (Toll-like receptor 4 [11]) was “Active”. For the same compound, the inhibition (Toll-like receptor 4 [12]) was “Active”, the inhibition [13] was “Active” and the inhibition [14] was “Active”. The inhibition [15] was “Active”, the inhibition [16] was “Active” and the inhibition [17] was “inactive”. For the same compound, the inhibition [18] was “inactive”, the inhibition [19] was “inactive” and the Activity (AD293 [20]) was “inactive”. For the same compound, the Activity [21] was “Active”, the inhibition (Toll-like receptor 4 [22]) was “inactive” and the Activity (THP-1 [23]) was “Active”. For the same compound, the Activity (THP-1 [24]) was “Active”, the inhibition (Toll-like receptor 4 [25]) was “inactive” and the Activity (THP-1 [26]) was “Active”. The Activity (THP-1 [27]) was “Active”, the Activity (AD293 [28]) was “Active” and the Activity (AD293 [29]) was “Active”. For the same compound, the inhibition (Toll-like receptor 4 [30]) was “Active”, the inhibition (Toll-like receptor 4 [31]) was “inactive” and the inhibition (Toll-like receptor 4 [32]) was “inactive”. The inhibition (Toll-like receptor 4 [33]) was “inactive”.
